Test results as given in patent publication US6177431A, “Tetrahydropyrimidine derivatives” (priority 1996, dated 2001).
Read-outs that look alike come from different tables or passages of the source.

What was measured:
[1] = system: caterpillars of the owlet moth (Spodoptera frugiperda); test: Spodoptera frugiperda test; assay type: in vivo; settings: for destruction: after 3 days, active compound concentration 0.001%, cabbage leaves dipped; for mortality at 0.001 %: Spodoptera frugiperda, in Brassica oleracea, 72 h, read-out: destruction
[2] = system: mustard beetle larvae (Phaedon cochleariae); test: Phaedon larvae test; settings: for mortality at 0.001 %: Phaedon cochleariae, in Brassica oleracea, 72 h, read-out: destruction
[3] = system: larvae of the green rice leaf hopper (Nephotettix cincticeps); test: Nephotettix test; assay type: in vivo; settings: 144 h, read-out: destruction
From the text: (§1) Solvent: 7 parts by weight of dimethylformamide

[4] = system: caterpillars of the diamondback moth (Plutella maculipennis); test: Plutella test; assay type: in vivo; settings: for mortality at 0.01 %: Plutella, in Brassica oleracea, 72 h, read-out: destruction
From the text: as §1

[5] = system: green peach aphids (Myzus persicae); test: Myzus test; assay type: in vivo; settings: for mortality at 0.001 %: Myzus persicae, 24 h, read-out: destruction
From the text: as §1

[6] = Lg. P, octanol/water partition coefficient determined by reversed phase HPLC; assay type: physicochemical
From the text: *^) Lg. P = Logarithm of the partition coefficient P of the substance
between the solvents octanol and water, determined experimentally by […]

[7] = after 1 day, active compound concentration 0.001%, infested broad bean seedlings dipped
[8] = octanol/water, determined experimentally by reversed phase HPLC, read-out: Lg. P (logarithm of the partition coefficient P)

SMILES | mortality at 0.001 % [1] [%] | mortality at 0.001 % [2] [%] | mortality at 0.0001 % [3] [%] | mortality at 0.01 % [4] [%] | further results
CCC(C)(C)N1CC([N+](=O)[O-])=C2N(Cc3cnc(Cl)s3)CCN2C1 [(A), reference compound] |  |  |  |  | destruction [1]: no action; destruction ([2]; after 3 days, active compound concentration 0.001%, cabbage leaves dipped): no action
COC(CN1CC([N+](=O)[O-])=C2N(Cc3cnc(Cl)s3)CCN2C1)OC [(B), reference compound] | 30 | 30 |  |  | 
CCCCCCN1CC([N+](=O)[O-])=C2N(Cc3cnc(Cl)s3)CCN2C1 [(C), reference compound] | 30 | 40 |  |  | 
CN1CC([N+](=O)[O-])=C2N(Cc3cnc(Cl)s3)CCN2C1 [(D), reference compound] |  |  |  |  | destruction [1]: no action
CCOC(=O)CCN1CC([N+](=O)[O-])=C2N(Cc3ccc(Cl)nc3)CCN2C1 [(E), reference compound] |  | 20 | 20 |  | destruction ([4]; after 3 days, active compound concentration 0.01%, cabbage leaves dipped): no action; mortality at 0.001 % ([5]; in Vicia faba): 10%
O=[N+]([O-])C1=C2N(Cc3ccc(Cl)nc3)CCN2CN(Cc2ccc(Cl)cc2)C1 [(F), reference compound] |  |  |  |  | destruction [5, 7]: no action; destruction [1]: no action
CCOC(=O)CN1CC([N+](=O)[O-])=C2N(Cc3ccc(Cl)nc3)CCN2C1 [(G), reference compound] | 30 |  |  |  | 
COC(=O)CN1CC([N+](=O)[O-])=C2N(Cc3ccc(Cl)nc3)CCN2C1 [Example 1, 6,7-dihydro-1-(2-chloropyridin-5-yl-methyl)-6-methoxycarbonyl-methyl-8-nitro-(5H)-imidazolidino-[2,3-f]-pyrimidine] |  | 100 |  | 100 | mortality at 0.001 % ([5]; in Vicia faba): 99%
O=C(CN1CC([N+](=O)[O-])=C2N(Cc3ccc(Cl)nc3)CCN2C1)Nc1ccccc1 [Example 3] |  | 100 |  |  | 
O=C(O)CCCCCN1CC([N+](=O)[O-])=C2N(Cc3ccc(Cl)nc3)CCN2C1 [Example 4] |  | 100 |  |  | chromatographic logP ([6]; reversed phase hplc): 1.07; mortality at 0.001 % ([5]; in Vicia faba): 80%
CCOC(=O)CCCN1CC([N+](=O)[O-])=C2N(Cc3ccc(Cl)nc3)CCN2C1 [Example 5] |  |  |  |  | chromatographic logP ([6]; reversed phase hplc): 0.94
COC(=O)CN1CC([N+](=O)[O-])=C2N(Cc3cnc(Cl)s3)CCN2C1 [Example 6] |  |  | 100 | 100 | mortality at 0.001 % ([5]; in Vicia faba): 90%
O=C(CN1CC([N+](=O)[O-])=C2N(Cc3ccc(Cl)nc3)CCN2C1)OCc1ccc(Cl)nc1 [Example 7] |  | 100 | 100 |  | 
CC(C)OC(=O)CN1CC([N+](=O)[O-])=C2N(Cc3ccc(Cl)nc3)CCN2C1 [Example 9] | 100 | 100 | 100 | 100 | 
Cc1ccc(COC(=O)CN2CC([N+](=O)[O-])=C3N(Cc4ccc(Cl)nc4)CCN3C2)cc1 [Example 10] | 100 | 100 | 100 | 100 | 
CCCCCCCCOC(=O)CN1CC([N+](=O)[O-])=C2N(Cc3ccc(Cl)nc3)CCN2C1 [Example 11] | 100 | 100 |  | 100 | 
O=C(CN1CC([N+](=O)[O-])=C2N(Cc3ccc(Cl)nc3)CCN2C1)OCc1ccc(Cl)c(Cl)c1 [Example 12] | 100 | 100 |  | 100 | 
O=C(CN1CC([N+](=O)[O-])=C2N(Cc3ccc(Cl)nc3)CCN2C1)OCc1c(Cl)cccc1Cl [Example 13] |  |  |  | 100 | 
O=C(CN1CC([N+](=O)[O-])=C2N(Cc3ccc(Cl)nc3)CCN2C1)OCc1ccc(Cl)cc1Cl [Example 14] | 100 | 100 | 100 | 100 | 
COC(=O)CCCN1CC([N+](=O)[O-])=C2N(Cc3ccc(Cl)nc3)CCN2C1 [Example 15] | 100 |  | 100 | 100 | chromatographic logP ([6]; reversed phase hplc): 1.12; mortality at 0.001 % ([5]; in Vicia faba): 98%
COC(=O)CCCN1CC([N+](=O)[O-])=C2N(Cc3cnc(Cl)s3)CCN2C1 [Example 16] |  |  | 100 |  | chromatographic logP [6, 8]: 1.13; mortality at 0.001 % [5, 7]: 90%
CCOC(=O)CCCN1CC([N+](=O)[O-])=C2N(Cc3cnc(Cl)s3)CCN2C1 [Example 17] |  |  | 100 | 100 | chromatographic logP [6, 8]: 1.35
COC(=O)CCCCN1CC([N+](=O)[O-])=C2N(Cc3ccc(Cl)nc3)CCN2C1 [Example 19] | 100 | 100 |  | 100 | mortality at 0.001 % ([5]; in Vicia faba): 95%
COC(=O)CCCCCCCN1CC([N+](=O)[O-])=C2N(Cc3cnc(Cl)s3)CCN2C1 [Example 20] | 100 | 100 |  |  | mortality at 0.001 % [5, 7]: 100%
COC(=O)CCCCCCCN1CC([N+](=O)[O-])=C2N(Cc3ccc(Cl)nc3)CCN2C1 [Example 21] |  |  |  | 100 | chromatographic logP [6, 8]: 1.73
CC(C)OC(=O)CCN1CC([N+](=O)[O-])=C2N(Cc3ccc(Cl)nc3)CCN2C1 [Example 23] |  | 100 |  |  | chromatographic logP ([6]; reversed phase hplc): 1.51
CCOC(=O)C(Cc1ccccc1)N1CC([N+](=O)[O-])=C2N(Cc3ccc(Cl)nc3)CCN2C1 (stereo not shown) [Example 27] |  |  |  |  | chromatographic logP [6, 8]: 1.99
COC(=O)C(C(C)C)N1CC([N+](=O)[O-])=C2N(Cc3ccc(Cl)nc3)CCN2C1 (stereo not shown) [Example 28] |  |  |  |  | chromatographic logP ([6]; reversed phase hplc): 1.55
